{ppp} = triphosphate
What was measured:
[1] = tested on: innate immune response genes; assay: Innate immune gene mRNA expression (RT-qPCR); assay type: cell-based, human; details: HepG2-hNTCP cells, 24 and 72 hours
[2] = tested on: IRF3; assay: Immunofluorescence analysis of IRF3 translocation; assay type: cell-based, human; details: HepG2-hNTCP cells, 24 hours; F7 10 μM; poly-U/UC PAMP or X-RNA 200 ng/ml in liposome
[3] = tested on: HBV; assay: HBV replication infection/treatment time course over 20 dpi; assay type: cell-based, HBV (Genotype D); details: HepG2-hNTCP; for production of pgRNA (RT-qPCR): 6 dpi to 20 dpi; for capsid-associated intracellular HBV DNA (RC, DL, SS DNA), Southern blot: 6 to 20 dpi; for production of cccDNA over time course: F7 10 μM or poly-U/UC PAMP 100 ng/ml from 24 hours after infection, within 2 dpi; for extracellular HBV DNA (qPCR) / secreted HBsAg in culture supernatant (ELISA): infection/treatment time course
Protocol: FIGS. 9A-9E illustrate kinetics of HBV replication in parallel cultures of cells during treatment with F7 or poly-U/UC PAMP. (9A) HepG2-hNTCP cells were infected with HBV at a moi of 1000 Geq/cell. After 24 hours the cells were treated with F7 (10 μM) (upper), or 100 ng/ml X RNA or 100 ng/ml poly-U/UC PAMP (lower). Cells were harvested at each time point, Hirt supernatants prepared and subjected to Southern blot analysis. (B) HBV pgRNA was analyzed by RT-qPCR. Values from 20 Dpi of ‘HBV only’ was set to 100% for RT-PCR analysis. Data was presented as mean±standard deviations (SD), ***P<0.001, ****P 21 0.0001; and ns=non-significant (9C) HBV intracellular capsid-associated DNA from cells treated with 10 uM F7 (upper) or 100 ng/ml XRNA or poly-U/UC PAMP (lower) was analyzed by Southern blot. (9D) Secreted HBsAg from HBV-infected cells treated with F7 (upper) or poly-U/UC (lower) was detected by ELISA. (9E) Extracellular HBV-DNA was measured by qPCR from cells treated with 10 uM (left) or 100 ng/ml XRNA or poly-U/UC PAMP (right). Data are presented as mean±standard deviation (SD) from three independent experiments. ***P 0.0002.
To further determine how the activation of IRF3 impacts the HBV replication cycle, the expression of viral DNA, viral RNA, extracellular HBV DNAs and secreted HBsAg were analyzed over an infection/treatment time course. […] The level of capsid-associated intracellular HBV DNA intermediates of reverse transcription produced over the HBV infection/treatment time course were also measured.
HBV infection HBV (Genotype D) was purified from the supernatant of HepAD38 cells by PEG concentration and subsequent sucrose gradient, as described previously (Ko, C., et al. (2014). DDX3 DEAD-Box RNA Helicase Is a Host Factor That Restricts Hepatitis B Virus Replication at the Transcriptional Level. Journal of Virology 88, 13689-13698; Watashi, K., et al. (2013), supra). For HBV infection cells were seeded into collagen-coated plates. One day later, the cells were infected with HBV in DMEM containing 4% polyethylene glycol 8000 (PEG-8000). The multiplicities of infection (expressed as virus genome equivalent/cell) are indicated in each Figure Legend. The inocula were removed 24 hours later, and the infected cultures were maintained in complete DMEM containing 2.5% DMSO until harvesting, as described previously (Ni, Y., et al. (2014). Hepatitis B and D viruses exploit sodium taurocholate co-transporting polypeptide for species-specific entry into hepatocytes. Gastroenterology 146, 1070-1083).
Reverse transcription quantitative real time qPCR (RT-qPCR) analysis: Total cellular RNAs were extracted from cells using TRIZOL reagent and the manufacturers protocol (Invitrogen). cDNA was synthesized from the purified RNA by both random and oligo (dT) priming using iScript select cDNA synthesis kit (Biorad, Inc.). For HBV cccDNA expression analysis, total DNA was extracted using the DNeasy kit (QIAGEN). For selective cccDNA PCR analysis, isolated DNAs were treated with 10 Units of T5 exonuclease (NEB) for 30 min in 10 μl of reaction volume in 37° C., followed by heat-inactivation at 95° C. for 5 min and 4-fold dilution with Nuclease-free water. For extra-cellular HBV DNA quantification, an external HBV plasmid standard was used to program the PCR (Ko, C., et al. (2018), supra). Relative mRNA levels of all target genes were quantified by RT-qPCR performed using the ΔΔCT method, and expression levels were normalized to house-keeping genes. Real-time PCR assays were carried out using the SYBR green method (Applied Biosystems) performed using an Applied Biosystems 7300 thermocycler. […]

[4] = tested on: IRF3; assay: Immunoblot of IRF3 phosphorylation and IFIT1 expression; assay type: cell-based, human; details: HepG2-hNTCP and dHepaRG cells, 24 and 48 hours, dose-dependent

| Molecule | mRNA expression of innate immune response genes (IFNs, ISGs, IRF3-target genes) [1] | innate immune activation marked by IRF3 translocation into the nucleus [2] | production of pgRNA (RT-qPCR) [3] | capsid-associated intracellular HBV DNA (RC, DL, SS DNA), Southern blot [3] | production of cccDNA over time course [3] | extracellular HBV DNA (qPCR) [3] | secreted HBsAg in culture supernatant (ELISA) [3] | IRF3 phosphorylation and IFIT1 expression [4] |
| --- | --- | --- | --- | --- | --- | --- | --- | --- |
| O=C(Nc1ccc2nc(NC(=O)c3ccc4ccccc4c3)sc2c1)c1ccccc1 [F7, N-(6-benzamido-1,3-benzothiazol-2-yl)naphthalene-2-carboxamide] | induced only IRF3-target gene expression | specifically induced innate immune activation | significantly suppressed | markedly decreased the levels of these DNA species | markedly suppressed | reduction of extracellular HBV DNA | significant reduction in the level of secreted HBsAg | specifically induced IRF3 phosphorylation and the expression of IFIT1 |
| poly-U/UC PAMP: ~100 nt PAMP motif from the HCV genome comprising 5′ppp and the poly U/UC region, recognized by RIG-I; formulated in liposome (nucleic acid, RNA, 5' {ppp}, backbone and methylation of C not given here; formulated in liposome, ~100 nt PAMP motif from the HCV genome comprising 5′ppp and the poly U/UC region, recognized by RIG-I; formulated in liposome) GGCCAUCCUGUUUUUUUCCCUUUUUUUUUUUCUUUUUUUUUUUUUUUUUUUUUUUUUUUUUUUUUUCUCCUUUUUUUUUCCUCUUUUUUUCCUUUUCUUUCCUUU | induced type I and type III IFN and ISG expression | specifically induced innate immune activation | significantly suppressed | markedly decreased the levels of these DNA species | markedly suppressed | reduction of extracellular HBV DNA | significant reduction in the level of secreted HBsAg | specifically induced IRF3 phosphorylation and the expression of IFIT1 |

From patent publication US20220241314A1, “COMPOSITIONS AND METHODS FOR TREATMENT OF HEPATITIS B VIRUS INFECTION” (priority 2019, published 2022)
